The values below come from US20230220443A1, “CHARACTERIZATION OF S-ADENOSYL-L-METHIONINE-CONSUMING ENZYMES WITH 1-STEP EZ-MTASE: A UNIVERSAL COUPLED-ASSAY” (ALBERT EINSTEIN COLLEGE OF MEDICINE, priority 2017, published 2023).

Each structure is given as a SMILES string. Entries after “also recorded” stand apart in the source; their conditions may differ.

As usually defined, the Km is the substrate concentration at which the rate is half of its maximum. In general, kcat refers to the maximal rate divided by the concentration of active sites.

One assay deals with T1, NcDIM-5 (Neurospora crassa, UniProt Q8X225).
T1 construct: GST; made in house
T1 sequence (Q8X225 1-331): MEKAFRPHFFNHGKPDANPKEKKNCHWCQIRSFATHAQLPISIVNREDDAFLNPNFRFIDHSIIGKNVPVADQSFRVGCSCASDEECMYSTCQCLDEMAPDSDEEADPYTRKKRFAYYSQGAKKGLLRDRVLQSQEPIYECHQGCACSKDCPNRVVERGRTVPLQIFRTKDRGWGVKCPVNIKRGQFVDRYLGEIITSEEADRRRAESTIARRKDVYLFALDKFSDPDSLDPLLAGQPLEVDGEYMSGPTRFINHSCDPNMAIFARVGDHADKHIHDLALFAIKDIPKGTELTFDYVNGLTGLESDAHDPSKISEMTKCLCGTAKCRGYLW
The following applies: literature values; cited from earlier work.

Another assay addresses T2, deaminase TM0936 (Thermotoga maritima, UniProt Q9X034).
T2 construct: polyhistidine; made in house; host or cells: bacteria
T2 sequence (Q9X034 1-406): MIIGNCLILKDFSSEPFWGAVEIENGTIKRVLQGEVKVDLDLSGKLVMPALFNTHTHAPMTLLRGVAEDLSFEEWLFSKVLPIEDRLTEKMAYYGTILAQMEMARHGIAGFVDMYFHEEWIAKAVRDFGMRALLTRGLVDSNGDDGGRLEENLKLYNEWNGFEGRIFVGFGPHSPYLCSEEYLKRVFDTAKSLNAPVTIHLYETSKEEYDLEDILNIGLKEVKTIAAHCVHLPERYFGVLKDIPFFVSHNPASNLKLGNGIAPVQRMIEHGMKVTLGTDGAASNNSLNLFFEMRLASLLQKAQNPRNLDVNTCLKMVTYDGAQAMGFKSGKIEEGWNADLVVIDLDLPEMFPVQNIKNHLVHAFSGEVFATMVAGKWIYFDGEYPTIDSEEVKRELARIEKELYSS
Put plainly: Deamination by coupling enzyme TM0936. It is filed as biochemical. On the procedure:
FIG. 9A-9D. Sinefungin is a positive control compatible with the 1-Step EZ-MTase assay. (A) MTAN-based assays catabolize the methyltransferase inhibitor sinefungin (SIN). […] (C) pH-dependence of the reaction between sinefungin and TM0936. […] (D) Inhibition of the sarcosine/dimethylglycine methyltransferase by sinefungin. […] The initial methyltransfer rates were recorded at 263 nm. Further analysis provided the inhibition constant Ki (1.8±0.4 μM).

A further assay deals with T3, GsSDMT (Galdieria sulphuraria, UniProt M2XPA0).
T3 sequence (M2XPA0 2-297): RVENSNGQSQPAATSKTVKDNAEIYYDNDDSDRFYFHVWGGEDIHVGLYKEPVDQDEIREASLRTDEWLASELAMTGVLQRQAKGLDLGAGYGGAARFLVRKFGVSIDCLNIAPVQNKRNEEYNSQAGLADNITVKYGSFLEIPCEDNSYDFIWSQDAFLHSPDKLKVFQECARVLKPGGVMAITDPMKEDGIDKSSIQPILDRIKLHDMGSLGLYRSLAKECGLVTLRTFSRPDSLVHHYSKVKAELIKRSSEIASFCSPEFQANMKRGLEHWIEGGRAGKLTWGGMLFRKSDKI
The note with it: lit. (54); cited from earlier work.

A further assay addresses T4, TbPRMT7 (Trypanosoma brucei brucei, UniProt Q582G4).
T4 construct: made in house
Put plainly: 1-Step EZ-MTase UV-based coupled assay, TbPRMT7 kinetics (incl. ionic strength). It is filed as biochemical. The note with it: for Km / kcat: pH=7.60, 25 mM phosphate, co-substrate saturating. As to the method: Briefly, the 250-μL reaction mixtures from a same row contained 25 mM phosphate buffer pH=7.60, 1 mM βME, 10% glycerol, 4 μM coupling deaminase TM0936, 1.0 μM TbPRMT7 and various peptide concentrations (16.6-243.3 μM; in the first well, peptide acceptor was omitted to account for background signal—natural decomposition of SAM). Reactions started upon addition of SAM (25.8 μM saturating final concentration) and absorbance was recorded. […] Fit to the Michaelis-Menten model (Eq. 5) provided corresponding kinetic parameters:
Briefly, the measurements consisted of two experimental subsets: MTase reactions (both SAM and peptide added) and MTase blanks (SAM was added without peptide to account for natural SAM decomposition). The 250-μL reaction mixtures from a same row contained 25 mM phosphate buffer pH=7.60, 1 mM βME, 10% glycerol, 4 μM coupling deaminase TM0936, 402 nM TbPRMT7 and various SAM concentrations (1.53-20.0 μM). […] Initial rates were first corrected for background signal, then plotted against SAM concentrations and fitted to the Morrison kinetic model to yield corresponding kinetic parameters.
Kinetic behavior for 8-aza-SAM against MTases (acceptor sat.)—Briefly, kinetic parameters were determined at 20° C. in a UV-Star 96-well flat bottom plate (Greiner Bio-One, #655801) by continuous monitoring of absorbance at 282 nm using a SpectraMax M5 instrument (Molecular Devices). As for SAM experiments, the measurements consisted of two experimental subsets: MTase reactions (both 8-aza-SAM and acceptor added) and MTase blanks (8-aza-SAM was added without acceptor to account for natural 8-aza-SAM decomposition). The 250-μL (60-μL) reaction mixtures from a same row contained 50 mM phosphate buffer pH=7.60 (7.80), 1 mM βME, 10% glycerol (5% glycerol, 100 μM MgCl2), 4 μM coupling deaminase TM0936, either 1.5 μM CePRMT5 or 402 nM TbPRMT7 (or 610 nM GsSDMT) and various 8-aza-SAM concentrations. […] Initial rates were first corrected for background signal, then plotted against 8-aza-SAM concentrations and fitted to the Michaelis-Menten equation to yield corresponding kinetic parameters. The kinetic data from CePRMT5 were fit to the following Eq. 6 to reflect substrate inhibition observed at higher 8-aza-SAM concentration:
Experiments were conducted following TbPRMT7 protocol above. Briefly, the 250-μL reaction mixtures from a same row contained either 25, 50, 75 or 100 mM phosphate buffer pH=7.60, 1 mM βME, 10% glycerol, 4 μM coupling deaminase TM0936, 1.0 μM TbPRMT7 and various peptide concentrations (16.6-243.3 μM; in the first well, peptide acceptor was omitted to account for background signal—natural decomposition of SAM). Reactions started upon addition of SAM (25.8 μM saturating final concentration) and absorbance was recorded. […] The four fits to the Michaelis-Menten equation (kcat fixed at 29 h^−1) provided corresponding Km values and established impact of ionic strength onto this kinetic parameter.

T4 sequence (Q582G4 whole entry): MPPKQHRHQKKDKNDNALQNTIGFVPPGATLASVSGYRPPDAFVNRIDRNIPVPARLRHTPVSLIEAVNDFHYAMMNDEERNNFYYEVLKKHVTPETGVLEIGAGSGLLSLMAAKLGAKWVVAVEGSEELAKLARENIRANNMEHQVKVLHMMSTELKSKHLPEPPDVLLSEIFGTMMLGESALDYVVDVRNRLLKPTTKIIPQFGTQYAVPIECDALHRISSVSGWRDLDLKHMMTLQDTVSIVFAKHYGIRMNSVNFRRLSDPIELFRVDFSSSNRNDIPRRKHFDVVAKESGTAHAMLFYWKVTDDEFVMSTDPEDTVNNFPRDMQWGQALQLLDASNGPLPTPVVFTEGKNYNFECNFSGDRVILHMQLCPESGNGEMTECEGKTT

Take `C[S+](CC[C@H](N)C(=O)O)C[C@H]1O[C@@H](n2cnc3c(N)ncnc32)[C@H](O)[C@@H]1O` (stereo partly drawn) [SAM, S-adenosyl-L-methionine]: the Km at NcDIM-5 is 0.68 ± 0.2 µM; on TbPRMT7, 1.1 ± 0.2 µM. The kcat on NcDIM-5 is 0.000861 s⁻¹; at GsSDMT, 0.867 ± 0.067 s⁻¹; on TbPRMT7 it was 0.00619 ± 0.00017 s⁻¹. Also, the “reactivity as TM0936 substrate” value at deaminase TM0936 was “unable to catabolize; also recorded: inability to catabolize”.

Regarding `C[S+](CC[C@H](N)C(=O)O)C[C@H]1O[C@@H](n2nnc3c(N)ncnc32)[C@H](O)[C@@H]1O` (stereo partly drawn) [8-aza-SAM, S-8-aza-adenosyl-L-methionine], on TbPRMT7, the “substrate inhibition (inhibitory behavior of the analog)” value is “not observed”, the Km was 15.3 ± 0.7 µM and the kcat came to 0.00639 ± 0.00011 s⁻¹.
